Earlier results, collected in article PMC9851200, “Multiparameter phenotypic screening for endogenous TFEB and TFE3 translocation identifies novel chemical series modulating lysosome function” (Autophagy, 2022).

Key:
Design in all cases: method as in original PKIS2 published data
[1] = molecular target: T1, kinases (KINOMEscan panel) (Homo sapiens, UniProt P78356); conditions: PIP4K2B; Published KINOMEscan; ref original PKIS2 published data; cited from earlier work
T1 sequence (P78356 1-416): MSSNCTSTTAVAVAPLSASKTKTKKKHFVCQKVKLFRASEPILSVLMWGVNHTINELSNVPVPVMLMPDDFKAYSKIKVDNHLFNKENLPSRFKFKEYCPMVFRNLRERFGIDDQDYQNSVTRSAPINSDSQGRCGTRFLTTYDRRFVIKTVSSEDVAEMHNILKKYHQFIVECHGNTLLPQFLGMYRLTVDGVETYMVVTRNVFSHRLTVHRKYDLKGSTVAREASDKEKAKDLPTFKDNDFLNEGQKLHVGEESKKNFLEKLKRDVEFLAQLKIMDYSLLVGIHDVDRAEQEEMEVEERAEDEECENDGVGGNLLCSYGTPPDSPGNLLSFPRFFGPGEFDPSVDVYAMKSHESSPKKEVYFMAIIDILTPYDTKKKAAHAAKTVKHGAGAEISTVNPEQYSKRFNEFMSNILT

[2] = molecular target: T2, kinases (KINOMEscan panel) (Homo sapiens, UniProt Q16566); conditions: CAMK4; Published KINOMEscan; ref original PKIS2 published data; cited from earlier work
T2 sequence (Q16566 1-473): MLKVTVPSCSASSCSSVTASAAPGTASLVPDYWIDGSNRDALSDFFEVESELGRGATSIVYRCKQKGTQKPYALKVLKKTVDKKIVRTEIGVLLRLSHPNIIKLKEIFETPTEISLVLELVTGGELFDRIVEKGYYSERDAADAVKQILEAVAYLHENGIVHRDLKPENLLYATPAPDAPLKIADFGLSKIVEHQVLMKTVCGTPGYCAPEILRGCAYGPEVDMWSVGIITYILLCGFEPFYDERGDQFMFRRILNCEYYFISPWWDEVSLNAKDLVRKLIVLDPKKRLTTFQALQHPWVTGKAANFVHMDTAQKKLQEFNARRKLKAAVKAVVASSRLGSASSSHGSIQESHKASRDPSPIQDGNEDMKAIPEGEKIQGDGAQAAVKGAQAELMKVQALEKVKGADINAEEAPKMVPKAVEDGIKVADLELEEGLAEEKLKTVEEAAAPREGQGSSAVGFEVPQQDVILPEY

[3] = molecular target: kinases (KINOMEscan panel) (Homo sapiens, UniProt O75914); conditions: Published KINOMEscan; ref original PKIS2 published data; cited from earlier work
Chain of kinases (KINOMEscan panel) (Homo sapiens, UniProt O75914) (O75914 whole entry): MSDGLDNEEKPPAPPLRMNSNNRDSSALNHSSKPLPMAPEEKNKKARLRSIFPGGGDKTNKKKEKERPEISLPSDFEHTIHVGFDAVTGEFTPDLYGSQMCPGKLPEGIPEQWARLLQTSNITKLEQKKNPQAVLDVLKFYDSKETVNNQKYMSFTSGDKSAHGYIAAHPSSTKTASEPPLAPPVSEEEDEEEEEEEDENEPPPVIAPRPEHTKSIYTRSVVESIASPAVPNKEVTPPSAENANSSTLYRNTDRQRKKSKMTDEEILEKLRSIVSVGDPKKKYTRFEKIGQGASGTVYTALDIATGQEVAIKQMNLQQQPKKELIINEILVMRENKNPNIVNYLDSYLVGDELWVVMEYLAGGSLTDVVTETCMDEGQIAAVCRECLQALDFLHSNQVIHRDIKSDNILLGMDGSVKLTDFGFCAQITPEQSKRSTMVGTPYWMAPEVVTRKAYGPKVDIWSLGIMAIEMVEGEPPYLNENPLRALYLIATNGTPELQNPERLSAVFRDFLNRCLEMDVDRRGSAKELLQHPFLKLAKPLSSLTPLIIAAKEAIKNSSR

[4] = molecular target: T3, kinases (KINOMEscan panel) (Homo sapiens, UniProt Q02156); conditions: kinase PRKCE; Published KINOMEscan; ref original PKIS2 published data; cited from earlier work
T3 sequence (Q02156 1-737): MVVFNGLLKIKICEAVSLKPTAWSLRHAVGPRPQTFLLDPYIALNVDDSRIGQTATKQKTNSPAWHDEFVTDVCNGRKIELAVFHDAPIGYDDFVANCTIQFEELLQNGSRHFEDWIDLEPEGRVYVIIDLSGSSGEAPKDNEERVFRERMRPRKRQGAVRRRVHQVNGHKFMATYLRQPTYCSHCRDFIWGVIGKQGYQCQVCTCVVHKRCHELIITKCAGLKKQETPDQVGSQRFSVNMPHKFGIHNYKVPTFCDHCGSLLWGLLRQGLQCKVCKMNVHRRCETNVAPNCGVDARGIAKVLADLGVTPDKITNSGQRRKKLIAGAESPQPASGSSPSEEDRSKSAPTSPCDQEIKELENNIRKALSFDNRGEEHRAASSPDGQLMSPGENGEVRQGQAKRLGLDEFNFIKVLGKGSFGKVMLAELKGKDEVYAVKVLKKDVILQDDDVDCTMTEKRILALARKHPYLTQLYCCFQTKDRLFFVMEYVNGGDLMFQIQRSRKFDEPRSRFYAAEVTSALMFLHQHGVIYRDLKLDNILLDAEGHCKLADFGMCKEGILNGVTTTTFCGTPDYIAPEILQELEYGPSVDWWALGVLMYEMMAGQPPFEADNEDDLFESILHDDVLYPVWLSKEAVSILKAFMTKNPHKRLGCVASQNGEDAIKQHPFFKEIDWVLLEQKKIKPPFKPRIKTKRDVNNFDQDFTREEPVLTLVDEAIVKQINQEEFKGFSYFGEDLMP

[5] = molecular target: kinases (KINOMEscan panel) (Homo sapiens, UniProt P21802); conditions: kinase FGFR2; Published KINOMEscan; ref original PKIS2 published data; cited from earlier work
Chain of kinases (KINOMEscan panel) (Homo sapiens, UniProt P21802) (P21802 22-821): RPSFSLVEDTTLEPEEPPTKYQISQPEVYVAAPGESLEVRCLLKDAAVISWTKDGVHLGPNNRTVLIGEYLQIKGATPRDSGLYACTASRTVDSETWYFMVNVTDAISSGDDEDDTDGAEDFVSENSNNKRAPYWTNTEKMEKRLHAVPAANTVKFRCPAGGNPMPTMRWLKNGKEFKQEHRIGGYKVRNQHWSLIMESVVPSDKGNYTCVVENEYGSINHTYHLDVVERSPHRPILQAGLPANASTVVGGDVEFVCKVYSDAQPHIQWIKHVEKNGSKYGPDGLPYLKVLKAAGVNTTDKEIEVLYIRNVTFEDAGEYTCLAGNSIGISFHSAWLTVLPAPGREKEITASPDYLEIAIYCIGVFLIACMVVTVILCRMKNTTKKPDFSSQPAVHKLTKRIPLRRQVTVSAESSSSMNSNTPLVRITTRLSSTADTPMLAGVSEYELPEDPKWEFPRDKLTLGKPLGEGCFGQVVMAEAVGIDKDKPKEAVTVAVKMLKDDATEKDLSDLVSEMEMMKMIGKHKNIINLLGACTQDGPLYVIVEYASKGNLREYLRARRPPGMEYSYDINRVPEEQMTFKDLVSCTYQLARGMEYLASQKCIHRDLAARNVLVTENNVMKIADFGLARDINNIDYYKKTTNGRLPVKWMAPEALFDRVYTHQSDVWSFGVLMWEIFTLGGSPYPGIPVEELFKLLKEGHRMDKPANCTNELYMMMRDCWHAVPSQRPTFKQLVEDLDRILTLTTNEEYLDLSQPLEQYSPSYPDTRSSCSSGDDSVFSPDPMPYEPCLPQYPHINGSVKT

[6] = molecular target: kinases (KINOMEscan panel) (Homo sapiens, UniProt P17612); conditions: kinase PRKACA; Published KINOMEscan; ref original PKIS2 published data; cited from earlier work
[7] = molecular target: kinases (KINOMEscan panel) (Homo sapiens, UniProt Q15303); conditions: kinase ERBB4; Published KINOMEscan; ref original PKIS2 published data; cited from earlier work
Chain of kinases (KINOMEscan panel) (Homo sapiens, UniProt Q15303) (Q15303 26-1308): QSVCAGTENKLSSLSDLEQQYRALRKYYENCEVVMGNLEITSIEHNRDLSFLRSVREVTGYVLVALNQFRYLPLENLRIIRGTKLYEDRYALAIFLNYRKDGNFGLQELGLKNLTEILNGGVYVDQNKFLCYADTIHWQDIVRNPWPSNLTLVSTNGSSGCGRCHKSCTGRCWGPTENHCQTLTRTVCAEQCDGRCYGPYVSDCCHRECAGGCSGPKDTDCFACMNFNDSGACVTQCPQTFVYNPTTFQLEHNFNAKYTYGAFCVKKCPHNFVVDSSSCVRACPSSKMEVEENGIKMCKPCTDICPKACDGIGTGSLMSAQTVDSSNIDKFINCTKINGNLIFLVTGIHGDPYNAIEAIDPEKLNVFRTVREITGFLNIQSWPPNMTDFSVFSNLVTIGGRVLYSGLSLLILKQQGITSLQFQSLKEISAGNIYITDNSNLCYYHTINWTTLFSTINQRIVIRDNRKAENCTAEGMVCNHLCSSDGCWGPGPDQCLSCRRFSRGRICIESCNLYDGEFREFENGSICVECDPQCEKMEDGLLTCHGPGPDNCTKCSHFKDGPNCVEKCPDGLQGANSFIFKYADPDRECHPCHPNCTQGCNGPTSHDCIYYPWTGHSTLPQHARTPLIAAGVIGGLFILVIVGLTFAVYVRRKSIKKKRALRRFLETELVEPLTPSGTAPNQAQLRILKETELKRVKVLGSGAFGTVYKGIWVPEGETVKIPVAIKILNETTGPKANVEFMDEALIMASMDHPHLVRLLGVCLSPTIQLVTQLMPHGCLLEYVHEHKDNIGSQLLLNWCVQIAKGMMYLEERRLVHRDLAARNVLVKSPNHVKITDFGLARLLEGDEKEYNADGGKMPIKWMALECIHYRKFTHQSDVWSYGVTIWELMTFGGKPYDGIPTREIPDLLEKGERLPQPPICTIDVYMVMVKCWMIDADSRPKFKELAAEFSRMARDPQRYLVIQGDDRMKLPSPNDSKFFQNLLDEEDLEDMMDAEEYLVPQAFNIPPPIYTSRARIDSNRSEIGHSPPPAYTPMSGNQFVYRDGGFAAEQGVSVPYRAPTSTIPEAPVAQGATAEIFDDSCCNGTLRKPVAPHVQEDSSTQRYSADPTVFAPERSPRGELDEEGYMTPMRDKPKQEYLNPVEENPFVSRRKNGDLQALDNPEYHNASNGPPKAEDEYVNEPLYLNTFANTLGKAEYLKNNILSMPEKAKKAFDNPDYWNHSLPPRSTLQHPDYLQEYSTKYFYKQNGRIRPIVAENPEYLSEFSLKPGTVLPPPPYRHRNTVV

[8] = molecular target: kinases (KINOMEscan panel) (Homo sapiens, UniProt Q9Y6M4); conditions: CSNK1G3; Published KINOMEscan; ref original PKIS2 published data; cited from earlier work
Chain of kinases (KINOMEscan panel) (Homo sapiens, UniProt Q9Y6M4) (Q9Y6M4 whole entry): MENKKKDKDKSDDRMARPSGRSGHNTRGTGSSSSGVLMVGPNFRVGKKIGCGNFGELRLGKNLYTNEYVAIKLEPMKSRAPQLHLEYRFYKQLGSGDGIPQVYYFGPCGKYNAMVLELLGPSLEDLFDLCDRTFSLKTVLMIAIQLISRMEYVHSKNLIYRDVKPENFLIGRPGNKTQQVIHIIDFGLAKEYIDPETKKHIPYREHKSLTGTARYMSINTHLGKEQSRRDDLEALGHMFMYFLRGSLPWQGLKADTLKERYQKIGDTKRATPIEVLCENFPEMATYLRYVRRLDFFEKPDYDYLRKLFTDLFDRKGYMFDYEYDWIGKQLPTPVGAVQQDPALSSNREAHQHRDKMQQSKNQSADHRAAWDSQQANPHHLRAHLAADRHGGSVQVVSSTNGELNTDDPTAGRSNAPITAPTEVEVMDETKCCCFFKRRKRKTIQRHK

Compound: Cc1cccc(-c2nc(Nc3ccncc3)c3ccccc3n2)n1 [NK215]
- KINOMEscan PIP4K2B [1]: 0
- KINOMEscan CAMK4 [2]: 47
- KINOMEscan PAK3 [3]: 0
- KINOMEscan PRKCE [4]: 0
- KINOMEscan FGFR2 [5]: 7
- KINOMEscan PRKACA [6]: 23
- KINOMEscan ERBB4 [7]: 0
- KINOMEscan CSNK1G3 [8]: 12
